Reference: patent US20250136556A1, “NOVEL MODULATORS OF THE ARYL HYDROCARBON RECEPTOR AND METHODS OF USE THEREOF” (Allianthera (Suzhou) Biopharmaceutical Co., Ltd., priority 2021, published 2025)
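Note: firefly luciferase luminescence read on a plate reader, values normalized against positive and negative controls.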

What follows are molecules tested against T1, Human Aryl Hydrocarbon Receptor (AHR) (Homo sapiens, UniProt P35869) (assay: AHR agonist reporter assay in human cell line (INDIGO luciferase reporter)). Settings: reporter cells, 24 hours incubation, second line of cell; read-out: AHR abEC50.
T1 construct: purchased INDIGO Bioscience IB06001-32; host or cells: AHR Reporter Cell (proprietary kit cells)
T1 sequence (P35869 11-848): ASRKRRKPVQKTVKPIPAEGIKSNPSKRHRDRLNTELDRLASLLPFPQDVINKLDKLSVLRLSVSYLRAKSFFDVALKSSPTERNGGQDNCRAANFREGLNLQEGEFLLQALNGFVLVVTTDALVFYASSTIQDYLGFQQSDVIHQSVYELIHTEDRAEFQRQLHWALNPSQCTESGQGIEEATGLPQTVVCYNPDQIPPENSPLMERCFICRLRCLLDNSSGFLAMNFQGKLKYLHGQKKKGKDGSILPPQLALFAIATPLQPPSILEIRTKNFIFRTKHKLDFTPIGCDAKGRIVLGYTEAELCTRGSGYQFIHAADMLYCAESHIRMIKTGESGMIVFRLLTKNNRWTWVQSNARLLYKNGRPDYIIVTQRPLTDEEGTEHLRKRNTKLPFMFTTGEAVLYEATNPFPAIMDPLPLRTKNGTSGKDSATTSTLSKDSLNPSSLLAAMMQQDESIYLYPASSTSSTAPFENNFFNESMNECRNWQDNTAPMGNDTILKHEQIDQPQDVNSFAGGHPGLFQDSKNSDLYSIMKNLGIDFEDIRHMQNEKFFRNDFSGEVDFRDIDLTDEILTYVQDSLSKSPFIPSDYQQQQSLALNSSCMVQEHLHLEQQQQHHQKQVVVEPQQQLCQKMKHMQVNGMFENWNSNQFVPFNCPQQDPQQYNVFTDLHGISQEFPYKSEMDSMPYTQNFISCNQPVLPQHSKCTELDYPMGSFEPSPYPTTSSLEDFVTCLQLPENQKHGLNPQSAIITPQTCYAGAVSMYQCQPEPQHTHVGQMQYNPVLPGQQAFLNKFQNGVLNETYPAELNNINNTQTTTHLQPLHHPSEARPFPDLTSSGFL
Format: cell-based
Description: The AHR reporter assay was performed following the protocol of the Human Aryl Hydrocarbon Receptor (AHR) Reporter Assay System (INDIGO Bioscience, #IB06001-32). AHR Reporter Cell was thawed and pre-incubated in Cell Recovery Medium (CRM) for 6 hours. […] Following 24 hours incubation, the media was removed and Luciferase Detection Reagent (LDR) added. The firefly luciferase activity was quantified using a plate reader. Results were normalized by positive and negative controls.
With `CC(C)c1c(O)cc(-c2cc3ccccc3nc2C#N)cc1O` [Compound 28] the EC50 was > 100 nM. With `CC(C)c1ncc(-c2ccc3nccc(F)c3c2)cc1O` [Compound 59] the EC50 was > 100 nM. `CC(C)c1ncc(-c2nccc3cccnc23)cc1O` [Compound 95] was tested, and the EC50 was > 100 nM. `CC(C)c1ncc(-c2ncnc3ccccc23)cc1O` [Compound 92] was tested, and the EC50 was > 100 nM. `CC(C)c1ncc(-c2cc(F)c3ncccc3c2F)cc1O` [Compound 63] was tested, and the EC50 was > 100 nM. With `CC(C)c1c(O)cc(-c2ccc3ncnc(N)c3c2)cc1O` [Compound 42] the EC50 was > 100 nM. In the case of `Cc1ccnc2c(-c3cnc(C(C)C)c(O)c3)ccnc12` [Compound 94], the EC50 is reported as > 100 nM. With `CC(C)c1ncc(-c2cc(F)c3ncccc3c2)cc1O` [Compound 57] the EC50 was > 100 nM. With `COc1cc(-c2cc(O)c(C(C)C)c(O)c2)cc2cccnc12` [Compound 18] the EC50 was > 100 nM. For `CC(C)n1c(O)cc(/C=C/c2ccccc2)cc1=O` [Compound 105, (E)-6-hydroxy-1-isopropyl-4-styrylpyridin-2(1H)-one], the EC50 was > 400 nM. In the case of `CC(C)c1c(O)cc(-c2ccc(F)c3ccc(C(F)(F)F)nc23)cc1O` [Compound 13], the EC50 is reported as > 100 nM. With `CC(C)c1ncc(-c2ccc(F)c3ccc(C(F)(F)F)nc23)cc1O` [Compound 64] the EC50 was > 100 nM. In the case of `CC(C)c1c(O)cc(-c2cc(F)c3nccnc3c2)cc1O` [Compound 36], the EC50 is reported as > 100 nM. For `CC(C)c1ncc(-c2cccc3ccc(C(=O)O)nc23)cc1O` [Compound 76], the EC50 was > 100 nM. `CC(C)c1c(O)cc(-c2cnc3c(F)cc(N)cc3c2)cc1O` [Compound 2] was tested, and the EC50 was > 100 nM. For `CC(C)c1c(O)cc(-c2ccc3nccc(F)c3c2)cc1O` [Compound 8], the EC50 was > 100 nM. Work on `FC(F)(F)c1ccc(Nc2nccc(-c3cccc(Cl)c3)n2)cc1` [Reference, reference compound] yielded an EC50 of 17.1 nM. `CC(C)c1c(O)cc(-c2cccc3ncccc23)cc1O` [Compound 20] was tested, and the EC50 was > 100 nM. For `CC(C)c1c(O)cc(-c2cccc3cc(F)c(O)nc23)cc1O` [Compound 5], the EC50 was 78.7 nM. With `COc1ccc2ccc(-c3cc(O)c(C(C)C)c(O)c3)cc2n1` [Compound 27] the EC50 was > 100 nM. With `CC(C)c1ncc(-c2c(Cl)cc3c(O)ncnc3c2F)cc1O` [Compound 89] the EC50 was > 100 nM. `CC(=O)c1c(O)cc(/C=C/c2ccccc2)cc1O` [Compound 108] was tested, and the EC50 was 143 nM. For `CC(C)c1ncc(-c2ccc3ncccc3c2F)cc1O` [Compound 61], the EC50 was > 100 nM. With `CC(C)c1ncc(-c2ccc3nccnc3c2)cc1O` [Compound 91] the EC50 was > 100 nM. `CC(C)c1onc(/C=C/c2ccccc2)c1O` [Compound 109, 5-isopropyl-3-[(E)-2-phenylethenyl]-1,2-oxazol-4-ol] was tested, and the EC50 was > 100 nM. `CC(C)c1ncc(-c2nc3ccccc3[nH]2)cc1O` [Compound 101] showed an EC50 of 94.4 nM. In the case of `CC(C)c1ncc(-c2cc3ccccc3nc2C#N)cc1O` [Compound 79], the EC50 is reported as > 100 nM. `CC(C)c1c(O)cc(-c2cnc3ccc(F)cc3c2)cc1O` [Compound 11] was tested, and the EC50 was > 100 nM. For `CC(C)c1c(O)cc(-c2ccc3nccnc3c2)cc1O` [Compound 40], the EC50 was > 100 nM. In the case of `CC(C)c1ncc(/C=C/c2ccccc2)cc1N` [Compound 117, 2-isopropyl-5-[(E)-2-phenylethenyl]pyridin-3-amine], the EC50 is reported as > 100 nM. In the case of `CC(C)c1c(O)cc(-c2ccc3cc(F)ccc3n2)cc1O` [Compound 9], the EC50 is reported as 20.9 nM. In the case of `CC(C)c1ncc(-c2cnc3ccccc3c2)cc1N` [Compound 120, 2-isopropyl-5-(quinolin-3-yl) pyridin-3-amine], the EC50 is reported as > 100 nM. For `CC(C)c1ncc(-c2cnc3c(F)c(F)ccc3c2)cc1O` [Compound 96], the EC50 was > 100 nM. With `CC(C)c1c(O)cc(S(=O)(=O)c2ccccc2)cc1O` [Compound 131, 2-isopropyl-5-(phenylsulfonyl)benzene-1,3-diol] the EC50 was > 400 nM. For `CC(C)c1c(O)cc([S+]([O-])c2ccccc2)cc1O` (centres unmarked) [Compound 130, 2-isopropyl-5-(phenylsulfinyl) benzene-1,3-diol], the EC50 was > 400 nM. For `CC(C)c1c(O)cc(-c2c(Cl)cc3c(O)ncnc3c2F)cc1O` [Compound 38], the EC50 was > 100 nM. In the case of `CC(C)c1ncc(/C=C/c2ccccn2)cc1O` [Compound 136], the EC50 is reported as > 100 nM. With `CC(C)c1c(O)cc(-c2ccnc3ccc(F)cc23)cc1O` [Compound 4] the EC50 was > 100 nM. In the case of `CC(C)c1ncc(-c2cncc3ccc(F)cc23)cc1O` [Compound 83], the EC50 is reported as > 100 nM. In the case of `CC(C)c1c(O)cc(-c2cc(O)cc3cccnc23)cc1O` [Compound 15], the EC50 is reported as > 100 nM. For `CC(C)c1c(O)cc(-c2nccc3cccnc23)cc1O` [Compound 44], the EC50 was > 100 nM. With `Cc1ccnc2cc(-c3cnc(C(C)C)c(O)c3)ccc12` [Compound 73] the EC50 was > 100 nM. With `CC(C)c1ncc(-c2cc3cnccc3cc2F)cc1O` [Compound 85] the EC50 was > 100 nM. `CC(C)c1c(O)cc(-c2cnc3cccc(O)c3c2)cc1O` [Compound 23] was tested, and the EC50 was > 100 nM. `CC(C)c1ncc(-c2ccnc3c(Cl)cccc23)cc1O` [Compound 68] was tested, and the EC50 was > 100 nM. In the case of `COc1cc(-c2cnc(C(C)C)c(O)c2)cc2cccnc12` [Compound 69], the EC50 is reported as > 100 nM. `COc1cc2ncccc2cc1-c1cc(O)c(C(C)C)c(O)c1` [Compound 21] was tested, and the EC50 was > 100 nM. With `CC(C)c1c(O)cc(-c2ccnc3c(F)cccc23)cc1O` [Compound 3] the EC50 was > 100 nM. For `CC(C)c1ncc(-c2ccnc3ccc(F)cc23)cc1O` [Compound 55], the EC50 was > 100 nM. With `CC(C)c1ncc(-c2cc(C(F)(F)F)c3cc(F)ccc3n2)cc1O` [Compound 52] the EC50 was > 100 nM. `CC(C)c1ncc(-c2ccc3cc(F)ccc3n2)cc1O` [Compound 60] was tested, and the EC50 was > 100 nM. In the case of `CC(C)c1ncc(-c2cccc3ncccc23)cc1O` [Compound 71], the EC50 is reported as > 100 nM. With `Cc1cnc2ccc(-c3cc(O)c(C(C)C)c(O)c3)cc2c1` [Compound 26] the EC50 was > 100 nM. For `CC(C)c1c(O)cc(-c2cnc3c(C(F)(F)F)cccc3c2)cc1O` [Compound 51], the EC50 was 90 nM. Work on `CC(C)c1c(O)cc(-c2cc(C(F)(F)F)c3cc(F)ccc3n2)cc1O` [Compound 1] yielded an EC50 of 25.2 nM. In the case of `Cc1cnc2ccc(-c3cnc(C(C)C)c(O)c3)cc2c1` [Compound 77], the EC50 is reported as > 100 nM. `CC(C)c1nc2c(cc1O)CC(c1ccccc1)O2` (centres unmarked) [Compound 127, 6-isopropyl-2-phenyl-2H,3H-furo[2,3-b]pyridin-5-ol] was tested, and the EC50 was > 100 nM. For `CC(C)c1ncc(-c2nc3ccccc3[nH]2)cc1N` [Compound 134], the EC50 was 101 nM. For `CC(C)c1c(O)cc(-c2cncc3ccc(F)cc23)cc1O` [Compound 32], the EC50 was > 100 nM. With `CC(C)c1c(O)cc(-c2cc(N)c3ccccc3n2)cc1O` [Compound 24] the EC50 was > 100 nM. With `CC(C)c1c(O)cc(-c2cccc3ccc(C(=O)O)nc23)cc1O` [Compound 25] the EC50 was > 100 nM. In the case of `CC(C)c1c(O)cc(-c2cc(F)c3ncccc3c2F)cc1O` [Compound 12], the EC50 is reported as > 100 nM. For `CC(C)c1c(O)cc(-c2ccnc3c(Cl)cccc23)cc1O` [Compound 17], the EC50 was > 100 nM. `CC(C)c1ncc(-c2cc(F)c3cnc(N)nc3c2)cc1O` [Compound 90] was tested, and the EC50 was > 100 nM. With `CC(C)c1c(O)cc(-c2ccc3nccc(C#N)c3c2)cc1O` [Compound 30] the EC50 was > 100 nM. In the case of `CC(C)c1c(O)cc(-c2cc3cccnc3cc2F)cc1O` [Compound 7], the EC50 is reported as > 100 nM. For `CC(C)c1c(O)cc(-c2cnc3c(F)c(F)ccc3c2)cc1O` [Compound 45], the EC50 was 38.9 nM. With `CC(C)c1c(O)cc(-c2cc3cnccc3cc2F)cc1O` [Compound 34] the EC50 was > 100 nM. `CC(C)c1c(O)cc(-c2cc(F)c3ncccc3c2)cc1O` [Compound 6] was tested, and the EC50 was 109 nM. For `CC(C)c1ncc(-c2cc3cccnc3cc2F)cc1O` [Compound 58], the EC50 was > 100 nM. In the case of `CC(C)c1ncc(-c2ccnc3c(F)cccc23)cc1O` [Compound 54], the EC50 is reported as > 100 nM. For `CC(C)c1ncc(-c2cnc3c(F)cc(N)cc3c2)cc1O` [Compound 53], the EC50 was > 100 nM. For `CC(C)c1c(O)cc(Oc2ccccc2)cc1O` [Compound 132, 2-isopropyl-5-phenoxybenzene-1,3-diol], the EC50 was > 400 nM. For `COc1cc(/C=C/c2ccccc2)cc(O)c1C(C)C` [Compound 137], the EC50 was < 8 nM. In the case of `CC(C)c1ncc(-c2ccc3nccc(C#N)c3c2)cc1O` [Compound 81], the EC50 is reported as > 100 nM. For `CNc1ccnc2ccc(-c3cc(O)c(C(C)C)c(O)c3)cc12` [Compound 16], the EC50 was > 100 nM. In the case of `CC(C)c1c(O)cc(-c2ccc3ncccc3c2F)cc1O` [Compound 10], the EC50 is reported as 33.4 nM. For `CC(C)c1c(O)cc(Sc2ccccc2)cc1O` [Compound 129, 2-isopropyl-5-(phenylthio) benzene-1,3-diol], the EC50 was > 400 nM. `COc1cc2ncccc2cc1-c1cnc(C(C)C)c(O)c1` [Compound 72] was tested, and the EC50 was > 100 nM. `COc1ccc2ccc(-c3cnc(C(C)C)c(O)c3)cc2n1` [Compound 78] was tested, and the EC50 was > 100 nM.
